Laboratory results taken from US9951068B2 (Proximagen Limited, priority 2013, dated 2018).
Structures can show the parent of a compound that is named as a salt.

Molecular target: purified recombinantly expressed human SSAO (Homo sapiens (Human), UniProt Q16853)
Test: SSAO enzyme inhibition assay (HRP-coupled hydrogen peroxide detection or 14C-benzaldehyde detection, benzylamine substrate)
Format: biochemical
Conditions: SSAO inhibitory activity, human recombinant SSAO, RT
Method: All primary assays were performed at RT. with purified recombinantly expressed human SSAO. Enzyme was prepared essentially as described in Öhman et al. (Protein Expression and Purification 46 (2006) 321-331). In addition, secondary- and selectivity assays were performed using SSAO prepared from various tissues or purified rat recombinant SSAO. The enzyme activity was assayed with benzylamine as substrate by measuring either benzaldehyde production, using ^14C-labeled substrate, or by utilizing the production of hydrogen peroxide in a horseradish peroxidase (HRP) coupled reaction. Briefly, test compounds were dissolved in dimethyl sulfoxide (DMSO) to a concentration of 10 mM. Dose-response measurements were assayed by either creating 1:10 serial dilutions in DMSO to produce a 7 point curve or by making 1:3 serial dilutions in DMSO to produce 11 point curves.
In a horseradish peroxidase (HRP) coupled reaction, hydrogen peroxide oxidation of 10-acetyl-3,7-dihydroxyphenoxazine produced resorufin, which is a highly fluorescent compound (Zhout and Panchuk-Voloshina. Analytical Biochemistry 253 (1997) 169-174; Amplex® Red Hydrogen Peroxide/peroxidase Assay kit, Invitrogen A22188). Enzyme and compounds in 50 mM sodium phosphate, pH 7.4 were set to pre-incubate in flat-bottomed microtiter plates for approximately 15 min before initiating the reaction by addition of a mixture of HRP, benzylamine and Amplex reagent. Benzylamine concentration was fixed at a concentration corresponding to the Michaelis constant, determined using standard procedures. Fluorescence intensity was then measured at several time points during 1-2 h, exciting at 544 nm and reading the emission at 590 nm. For the human SSAO assay final concentrations of the reagents in the assay wells were: SSAO enzyme 1 ug/ml, benzylamine 100 uM, Amplex reagent 20 uM, HRP 0.1 U/mL and varying concentrations of test compound. The inhibition was measured as % decrease of the signal compared to a control without inhibitor (only diluted DMSO). The background signal from a sample containing no SSAO enzyme was subtracted from all data points. Data was fitted to a four parameter logistic model and IC50 values were calculated using the GraphPad Prism 4 or XLfit 4 programs.
SSAO activity was assayed using 14C-labeled benzylamine and analysed by measuring radioactive benzaldehyde. In a white 96-well optiplate (Packard), 20 uL of diluted test compound was pre-incubated at room temperature with 20 uL SSAO enzyme for approximately 15 min with continuous agitation. All dilutions were made with PBS. The reaction was initiated by adding 20 uL of the benzylamine substrate solution containing [7-14C] Benzylamine hydrochloride (CFA589, GE Healthcare). The plate was incubated for 1 h as above after which the reaction was stopped by acidification (10 uL 1M aq HCl). Then 90 uL Micro Scint-E solution (Perkin-Elmer) was added to each well and the plate was continuously mixed for 15 min. Phase separation occurred instantly and activity was read in a Topcount scintillation counter (Perkin-Elmer). In the final reaction well, the human recombinant SSAO concentration was 10 ug/ml. In order to optimize sensitivity, the substrate concentration was decreased as compared to the HRP coupled assay in order to get a higher fraction of radioactive product. In the human SSAO assay, benzylamine concentration was 40 uM (0.2 uCi/mL). Data was analysed as above.

Chain of purified recombinantly expressed human SSAO (Q16853 29-763): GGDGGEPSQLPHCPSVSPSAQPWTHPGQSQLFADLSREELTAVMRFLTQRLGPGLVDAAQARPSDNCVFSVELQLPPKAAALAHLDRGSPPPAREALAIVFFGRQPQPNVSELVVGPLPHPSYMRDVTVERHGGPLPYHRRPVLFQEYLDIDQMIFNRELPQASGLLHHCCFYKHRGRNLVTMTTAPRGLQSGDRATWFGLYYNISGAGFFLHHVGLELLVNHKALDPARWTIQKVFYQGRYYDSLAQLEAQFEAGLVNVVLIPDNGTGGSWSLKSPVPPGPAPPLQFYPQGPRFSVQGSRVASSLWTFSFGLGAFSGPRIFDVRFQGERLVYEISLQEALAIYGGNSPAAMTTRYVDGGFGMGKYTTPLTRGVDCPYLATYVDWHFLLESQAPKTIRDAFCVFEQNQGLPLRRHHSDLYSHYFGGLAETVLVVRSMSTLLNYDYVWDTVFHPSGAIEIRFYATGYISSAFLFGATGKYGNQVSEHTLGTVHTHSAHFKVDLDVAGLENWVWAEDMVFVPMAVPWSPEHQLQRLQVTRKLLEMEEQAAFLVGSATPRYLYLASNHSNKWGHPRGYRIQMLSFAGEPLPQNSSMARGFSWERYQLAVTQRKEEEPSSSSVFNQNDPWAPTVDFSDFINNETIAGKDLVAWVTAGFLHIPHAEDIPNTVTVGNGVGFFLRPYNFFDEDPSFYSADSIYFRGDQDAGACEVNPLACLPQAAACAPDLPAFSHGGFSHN

| IC50 | Structure (SMILES) |
| --- | --- |
| < 50 nM | Fc1ccc(-n2c(-c3ccc(N4CCOCC4)nc3)nc3ccncc32)c(Cl)c1 [Example 61, 4-{5-[3-(2-Chloro-4-fluorophenyl)-3H-imidazo[4,5-c]pyridin-2-yl]pyridin-2-yl}morpholine] |
| < 50 nM | Oc1ccc(-n2c(-c3ccc(N4CCOCC4)nc3)nc3ccncc32)cc1 [Example 65, 4-{2-[6-(Morpholin-4-yl)pyridin-3-yl]-3H-imidazo[4,5-c]pyridin-3-yl}phenol] |
| < 50 nM | Cc1ccc(-n2c(-c3ccc(N4CCOCC4)nc3)nc3ccncc32)c(F)c1 [Example 67, 4-{5-[3-(2-Fluoro-4-methylphenyl)-3H-imidazo[4,5-c]pyridin-2-yl]pyridin-2-yl}morpholine] |
| < 50 nM | Fc1ccccc1-n1c(-c2ccc(N3CCOCC3)nc2)nc2ccncc21 [Example 68, 4-{5-[3-(2-Fluorophenyl)-3H-imidazo[4,5-c]pyridin-2-yl]pyridin-2-yl}morpholine] |
| < 50 nM | Cc1ccc(-n2c(-c3cnc(N4CCOCC4)nc3)nc3ccncc32)nc1 [Example 79, 4-{5-[3-(5-Methylpyridin-2-yl)-3H-imidazo[4,5-c]pyridin-2-yl]pyrimidin-2-yl}morpholine] |
| < 50 nM | Fc1cc(Cl)ccc1-n1c(-c2cnc(N3CCCC3)nc2)nc2ccncc21 [Example 83, 5-[3-(4-Chloro-2-fluorophenyl)-3H-imidazo[4,5-c]pyridin-2-yl]-2-(pyrrolidin-1-yl)pyrimidine] |
| < 50 nM | CN(C)c1ncc(-c2nc3ccncc3n2-c2ccc(Cl)cc2F)cn1 [Example 84, 5-[3-(4-Chloro-2-fluorophenyl)-3H-imidazo[4,5-c]pyridin-2-yl]-N,N-dimethylpyrimidin-2-amine] |
| < 50 nM | CC(=O)N1CCCN(c2ccc(-c3nc4ccncc4n3-c3ccc(F)cc3)cn2)CC1 [Example 87, 1-(4-{5-[3-(4-Fluorophenyl)-3H-imidazo[4,5-c]pyridin-2-yl]pyridin-2-yl}-1,4-diazepan-1-yl)ethan-1-one; bis(trifluoroacetic acid)] |
| < 50 nM | CS(=O)(=O)NC1CCN(c2ccc(-c3nc4ccncc4n3-c3ccc(Cl)cc3)cn2)CC1 [Example 88, N-(1-{5-[3-(4-Chlorophenyl)-3H-imidazo[4,5-c]pyridin-2-yl]pyridin-2-yl}piperidin-4-yl)methanesulfonamide] |
| < 50 nM | NC(=O)N1CCN(c2ccc(-c3nc4ccncc4n3-c3ccc(Cl)cc3)cn2)CC1 [Example 90, 4-{5-[3-(4-Chlorophenyl)-3H-imidazo[4,5-c]pyridin-2-yl]pyridin-2-yl}piperazine-1-carboxamide dihydrochloride] |
| < 50 nM | O=c1cc(N2CCOCC2)[nH]cc1-c1nc2ccncc2n1-c1ccc(F)cc1 [Example 99, 5-[3-(4-Fluorophenyl)-3H-imidazo[4,5-c]pyridin-2-yl]-2-(morpholin-4-yl)-1,4-dihydropyridin-4-one] |
| 50 to 200 nM | Cc1cc(-n2cccn2)ncc1-c1nc2ccncc2n1-c1ccc(F)cc1 [Example 102, 5-[3-(4-Fluorophenyl)-3H-imidazo[4,5-c]pyridin-2-yl]-4-methyl-2-(1H-pyrazol-1-yl)pyridine] |
| < 50 nM | Cc1ccc(-n2c(-c3ccc(N4C[C@@H](C)O[C@@H](C)C4)nc3)nc3ccncc32)nc1 [Example 104, (2R,6S)-2,6-Dimethyl-4-{5-[3-(5-methylpyridin-2-yl)-3H-imidazo[4,5-c]pyridin-2-yl]pyridin-2-yl}morpholine] |
| < 50 nM | Cc1ccc(-n2c(-c3cnc(N4CCOCC4)cc3C)nc3ccncc32)cn1 [Example 107, 4-{4-Methyl-5-[3-(6-methylpyridin-3-yl)-3H-imidazo[4,5-c]pyridin-2-yl]pyridin-2-yl}morpholine] |
| 200 to 1200 nM | Cc1cc(N(C)C)ncc1-c1nc2ccncc2n1-c1ccc(F)cc1 [Example 111, 5-[3-(4-Fluorophenyl)-3H-imidazo[4,5-c]pyridin-2-yl]-N,N,4-trimethylpyridin-2-amine] |
| < 50 nM | Fc1ccc(-n2c(-c3ccc(OC4CCOC4)nc3)nc3ccncc32)cc1 (stereo not drawn) [Example 112, 5-[3-(4-Fluorophenyl)-3H-imidazo[4,5-c]pyridin-2-yl]-2-(oxolan-3-yloxy)pyridine] |
| < 50 nM | Fc1ccc(-n2c(-c3ccc(OC4CCOCC4)nc3)nc3ccncc32)cc1 [Example 113, 5-[3-(4-Fluorophenyl)-3H-imidazo[4,5-c]pyridin-2-yl]-2-(oxan-4-yloxy)pyridine] |

| IC50 | Structure (SMILES) |
| --- | --- |
| < 50 nM | O=c1cc(-c2nc3ccncc3n2-c2ccc(F)cc2)ccn1C1CC1 [Example 115, 1-Cyclopropyl-4-[3-(4-fluorophenyl)-3H-imidazo[4,5-c]pyridin-2-yl]-1,2-dihydropyridin-2-one] |
| < 50 nM | Cc1ccc(-n2c(-c3cnc(N4C[C@@H](C)O[C@@H](C)C4)nc3)nc3ccncc32)cn1 [Example 118, (2R,6S)-2,6-Dimethyl-4-{5-[3-(6-methylpyridin-3-yl)-3H-imidazo[4,5-c]pyridin-2-yl]pyrimidin-2-yl}morpholine] |
| < 50 nM | Clc1ccc(-n2c(-c3ccccn3)cc3ccncc32)cc1 [Example 121, 2-[1-(4-Chlorophenyl)-1H-pyrrolo[2,3-c]pyridin-2-yl]pyridine] |
| < 50 nM | Clc1ccc(-n2c(-c3cncnc3)cc3ccncc32)cc1 [Example 123] |
| < 50 nM | Clc1ccc(-n2c(-c3cnccn3)cc3ccncc32)cc1 [Example 124, 2-[1-(4-Chlorophenyl)-1H-pyrrolo[2,3-c]pyridin-2-yl]pyrazine] |
| < 50 nM | Cc1nc(C)c(-c2cc3ccncc3n2-c2ccc(Cl)cc2)[nH]1 [Example 126, 5-[1-(4-Chlorophenyl)-1H-pyrrolo[2,3-c]pyridin-2-yl]-2,4-dimethyl-1H-imidazole] |
| < 50 nM | Clc1ccc(-n2c(-c3cnc(N4CCOCC4)nc3)cc3ccncc32)cc1 [Example 127, 4-{5-[1-(4-Chlorophenyl)-1H-pyrrolo[2,3-c]pyridin-2-yl]pyrimidin-2-yl}morpholine] |
| < 50 nM | Cc1cc(N2CCOCC2)ncc1-c1cc2ccncc2n1-c1ccc(Cl)cc1 [Example 129, 4-{5-[1-(4-Chlorophenyl)-1H-pyrrolo[2,3-c]pyridin-2-yl]-4-methylpyridin-2-yl}morpholine; bis(trifluoroacetic acid)] |
| < 50 nM | Brc1ccc(-n2c(-c3cnc(N4CCOCC4)nc3)cc3ccncc32)cc1 [Example 133, 4-{5-[1-(4-Bromophenyl)-1H-pyrrolo[2,3-c]pyridin-2-yl]pyrimidin-2-yl}morpholine] |
| < 50 nM | Cn1nccc1-c1cc2ccncc2n1-c1ccc(Cl)cc1 [Example 134, 5-[1-(4-Chlorophenyl)-1H-pyrrolo[2,3-c]pyridin-2-yl]-1-methyl-1H-pyrazole] |
| < 50 nM | Cn1cc(-c2cc3ccncc3n2-c2ccc(Cl)cc2)cn1 [Example 135, 4-[1-(4-Chlorophenyl)-1H-pyrrolo[2,3-c]pyridin-2-yl]-1-methyl-1H-pyrazole] |
| < 50 nM | CN(C)c1ncc(-c2cc3ccncc3n2-c2ccc(Cl)cc2)cn1 [Example 137, 5-[1-(4-Chlorophenyl)-1H-pyrrolo[2,3-c]pyridin-2-yl]-N,N-dimethylpyrimidin-2-amine; bis(trifluoroacetic acid)] |
| < 50 nM | O=c1cc(-c2cc3ccncc3n2-c2ccc(Cl)cc2)ccn1C1CC1 [Example 138, 4-[1-(4-Chlorophenyl)-1H-pyrrolo[2,3-c]pyridin-2-yl]-1-cyclopropyl-1,2-dihydropyridin-2-one] |
| < 50 nM | Clc1ccc(-n2c(-c3cnc(NC4CCOCC4)nc3)cc3ccncc32)cc1 [Example 139, 5-[1-(4-Chlorophenyl)-1H-pyrrolo[2,3-c]pyridin-2-yl]-N-(oxan-4-yl)pyrimidin-2-amine] |
| < 50 nM | Clc1ccc(-n2c(-c3ccc(CN4CCOCC4)nc3)cc3ccncc32)cc1 [Example 140, 4-({5-[1-(4-Chlorophenyl)-1H-pyrrolo[2,3-c]pyridin-2-yl]pyridin-2-yl}methyl)morpholine] |
| < 50 nM | Cn1ccc(-c2cc3ccncc3n2-c2ccc(Cl)cc2)cc1=O [Example 143, 4-[1-(4-Chlorophenyl)-1H-pyrrolo[2,3-c]pyridin-2-yl]-1-methyl-1,2-dihydropyridin-2-one] |
